Patent US11708318B2, “Polymorphic forms of RAD1901-2HCL” (Radius Pharmaceuticals, Inc., priority 2017, dated 2023)
Where two headings read alike, the source gives them in different places.

Assay: Solubility assessment of Sample 1 (majorly Form 1) in 24 solvent systems
Format: physicochemical
Conditions: organic solvent or mixture
Procedure: Solubility assessment was carried out on the Sample 1 of RAD1901-2HCl (majorly Form 1 shown by XRPD) in 24 solvent systems in HPLC vials (sample IDs: A1 to A24). RAD1901-2HCl (25 mg) was treated with increasing volumes of solvent until the material fully dissolved or until a maximum of 60 vol had been used (Table 13).
After each addition of solvent, the system was stirred for 5 to 10 minutes at 25° C., then shaken at 50° C. for 5 to 10 minutes, and observations made. Samples were allowed to stand at room temperature for 5 min before the addition of a new aliquot of solvent. After the assessment was completed, the suspensions obtained were matured (maturation) and the clear solutions were cooled (cooling) and slowly evaporated (evaporation) as described below. All solids recovered from maturation, cooling and evaporation experiments were analyzed by high resolution XRPD.

In the case of `CCNCCc1ccc(CN(CC)c2cc(OC)ccc2[C@@H]2CCc3cc(O)ccc3C2)cc1.Cl.Cl` [Sample 1], the solubility (1,2-dimethoxyethane, 50 °C, thermodynamic from solid, 1,2-dimethoxyethane, sample ID A16, read-out: Solubility assessment 10 vol.) is reported as less than 100 mg/mL, the solubility (1,2-dimethoxyethane, 50 °C, thermodynamic from solid, 1,2-dimethoxyethane, sample ID A16, read-out: Solubility assessment 20 vol.) is reported as less than 50 mg/mL and the solubility (1,2-dimethoxyethane, 50 °C, thermodynamic from solid, 1,2-dimethoxyethane, sample ID A16, read-out: Solubility assessment 40 vol.) is reported as less than 25 mg/mL. It also gave a solubility (1,2-dimethoxyethane, 50 °C, thermodynamic from solid, 1,2-dimethoxyethane, sample ID A16, read-out: Solubility assessment 60 vol.) of less than 16.7 mg/mL, a solubility (1,4-dioxane, 50 °C, thermodynamic from solid, 1,4-Dioxane, sample ID A14, read-out: Solubility assessment 10 vol.) of less than 100 mg/mL and a solubility (1,4-dioxane, 50 °C, thermodynamic from solid, 1,4-Dioxane, sample ID A14, read-out: Solubility assessment 20 vol.) of less than 50 mg/mL. It also gave a solubility (1,4-dioxane, 50 °C, thermodynamic from solid, 1,4-Dioxane, sample ID A14, read-out: Solubility assessment 40 vol.) of less than 25 mg/mL, a solubility (1,4-dioxane, 50 °C, thermodynamic from solid, 1,4-Dioxane, sample ID A14, read-out: Solubility assessment 60 vol.) of less than 16.7 mg/mL and a solubility (1-propanol, 50 °C, thermodynamic from solid, 1-propanol, sample ID A8, read-out: Solubility assessment 10 vol.) of less than 100 mg/mL. It also gave a solubility (1-propanol, 50 °C, thermodynamic from solid, 1-propanol, sample ID A8, read-out: Solubility assessment 20 vol.) of less than 50 mg/mL, a solubility (1-propanol, 50 °C, thermodynamic from solid, 1-propanol, sample ID A8, read-out: Solubility assessment 40 vol.) of less than 25 mg/mL and a solubility (1-propanol, 50 °C, thermodynamic from solid, 1-propanol, sample ID A8, read-out: Solubility assessment 60 vol.) of less than 16.7 mg/mL. For the same compound, the solubility (2-propanol, 50 °C, thermodynamic from solid, 2-propanol, sample ID A6, read-out: Solubility assessment 10 vol.) was less than 100 mg/mL, the solubility (2-propanol, 50 °C, thermodynamic from solid, 2-propanol, sample ID A6, read-out: Solubility assessment 20 vol.) was less than 50 mg/mL and the solubility (2-propanol, 50 °C, thermodynamic from solid, 2-propanol, sample ID A6, read-out: Solubility assessment 40 vol.) was less than 25 mg/mL. It also gave a solubility (2-propanol, 50 °C, thermodynamic from solid, 2-propanol, sample ID A6, read-out: Solubility assessment 60 vol.) of less than 16.7 mg/mL, a solubility (10% water/EtOH, 50 °C, thermodynamic from solid, 10% water/EtOH, sample ID A22, read-out: Solubility assessment 10 vol.) of 50 to 100 mg/mL and a solubility (10% water/EtOH, 50 °C, thermodynamic from solid, 10% water/EtOH, sample ID A22, read-out: Solubility assessment 20 vol.) of 50 to 100 mg/mL. For the same compound, the solubility (10% water/IPA, 50 °C, thermodynamic from solid, 10% water/IPA, sample ID A23, read-out: Solubility assessment 10 vol.) was less than 100 mg/mL, the solubility (10% water/IPA, 50 °C, thermodynamic from solid, 10% water/IPA, sample ID A23, read-out: Solubility assessment 20 vol.) was less than 50 mg/mL and the solubility (10% water/IPA, 50 °C, thermodynamic from solid, 10% water/IPA, sample ID A23, read-out: Solubility assessment 40 vol.) was 16.7 to 25 mg/mL. It also gave a solubility (10% water/IPA, 50 °C, thermodynamic from solid, 10% water/IPA, sample ID A23, read-out: Solubility assessment 60 vol.) of 16.7 to 25 mg/mL, a solubility (10% water/THF, 50 °C, thermodynamic from solid, 10% water/THF, sample ID A24, read-out: Solubility assessment 10 vol.) of less than 100 mg/mL and a solubility (10% water/THF, 50 °C, thermodynamic from solid, 10% water/THF, sample ID A24, read-out: Solubility assessment 20 vol.) of less than 50 mg/mL. For the same compound, the solubility (10% water/THF, 50 °C, thermodynamic from solid, 10% water/THF, sample ID A24, read-out: Solubility assessment 40 vol.) was 16.7 to 25 mg/mL, the solubility (10% water/THF, 50 °C, thermodynamic from solid, 10% water/THF, sample ID A24, read-out: Solubility assessment 60 vol.) was 16.7 to 25 mg/mL and the solubility (MEK, 50 °C, thermodynamic from solid, MEK, sample ID A7, read-out: Solubility assessment 10 vol.) was less than 100 mg/mL. The solubility (MEK, 50 °C, thermodynamic from solid, MEK, sample ID A7, read-out: Solubility assessment 20 vol.) was less than 50 mg/mL, the solubility (MEK, 50 °C, thermodynamic from solid, MEK, sample ID A7, read-out: Solubility assessment 40 vol.) was less than 25 mg/mL and the solubility (MEK, thermodynamic from solid, MEK, sample ID A7, read-out: Solubility assessment 60 vol.) was less than 16.7 mg/mL. It also gave a solubility (MIBK, 50 °C, thermodynamic from solid, MIBK, sample ID A5, read-out: Solubility assessment 10 vol.) of less than 100 mg/mL, a solubility (MIBK, 50 °C, thermodynamic from solid, MIBK, sample ID A5, read-out: Solubility assessment 20 vol.) of less than 50 mg/mL and a solubility (MIBK, 50 °C, thermodynamic from solid, MIBK, sample ID A5, read-out: Solubility assessment 40 vol.) of less than 25 mg/mL. The solubility (MIBK, thermodynamic from solid, MIBK, sample ID A5, read-out: Solubility assessment 60 vol.) was less than 16.7 mg/mL, the solubility (TBME, 50 °C, thermodynamic from solid, TBME, sample ID A13, read-out: Solubility assessment 10 vol.) was less than 100 mg/mL and the solubility (TBME, 50 °C, thermodynamic from solid, TBME, sample ID A13, read-out: Solubility assessment 20 vol.) was less than 50 mg/mL. The solubility (TBME, 50 °C, thermodynamic from solid, TBME, sample ID A13, read-out: Solubility assessment 40 vol.) was less than 25 mg/mL, the solubility (TBME, thermodynamic from solid, TBME, sample ID A13, read-out: Solubility assessment 60 vol.) was less than 16.7 mg/mL and the solubility (acetone, 50 °C, thermodynamic from solid, Acetone, sample ID A9, read-out: Solubility assessment 10 vol.) was less than 100 mg/mL. It also gave a solubility (acetone, 50 °C, thermodynamic from solid, Acetone, sample ID A9, read-out: Solubility assessment 20 vol.) of less than 50 mg/mL, a solubility (acetone, 50 °C, thermodynamic from solid, Acetone, sample ID A9, read-out: Solubility assessment 40 vol.) of less than 25 mg/mL and a solubility (acetone, 50 °C, thermodynamic from solid, Acetone, sample ID A9, read-out: Solubility assessment 60 vol.) of less than 16.7 mg/mL. It also gave a solubility (acetonitrile, 50 °C, thermodynamic from solid, Acetonitrile, sample ID A19, read-out: Solubility assessment 10 vol.) of less than 100 mg/mL and a solubility (acetonitrile, 50 °C, thermodynamic from solid, Acetonitrile, sample ID A19, read-out: Solubility assessment 20 vol.) of less than 50 mg/mL.
